Starred links: 1 amine or outer side, 2 acyl side, 3 side chain; linkers in the order of their positions; H or OH if unused. Residues, ends and D or L forms follow the SMILES beside them. Groups on a side chain read outwards from the residue. *: point of attachment. TTDA(Palmitoyl) = CCCCCCCCCCCCCCCC(=O)NCCCOCCOCCOCCCN*; Suc = O=C(CCC(=O)[*:2])[*:1]
Tested on: urinary metabolites
Experiment: NMR-based metabolomics of urine of DIO mice
Format: in vivo, C57BL/6 mice
Set-up: key to DMA, Mean / DMG, Mean / MA, Mean / TMA, Mean / acetate, Mean / allantoin, Mean / carnitine, Mean / choline, Mean / cis-aconitate, Mean / creatine+creatinine, Mean / creatine, Mean / creatinine, Mean / ethanolamine, Mean / formate, Mean / galactose, Mean / glucose, Mean / glycine, Mean / lactate, Mean / succinate, Mean / vinylacetylglycine, Mean: TSA-normalized intensity of the metabolite's representative NMR signal
Conditions: urine of DIO mice, NMR metabolomics
Protocol: Urine samples for NMR-based metabolomics were collected prior to the start of the interventions and at the end of the experiment. For overnight urine collection (from 5 pm to 8 am), the mice were housed in individual metabolic cages (Tecniplast, Buguggiate, Italy) without access to food. Samples were collected with the addition of NaN3 and stored at -80°C until NMR analysis.
The urine samples were thawed at room temperature and centrifuged at 13 684 x g for 5 min prior to the NMR experiments. A 200-μl aliquot of supernatant was diluted with 340 μl of H2O mixed with 60 μl of phosphate buffer (1.5 M KH2PO4 in D2O containing 2 mM NaN3 and 0.1% trimethylsilyl propionic acid (TSP), pH 7.4) and transferred to a 5-mm NMR tube. The NMR data were acquired with a 600 MHz Bruker Avance III spectrometer (Bruker BioSpin, Rheinstetten, Germany) equipped with a 5-mm TCI cryogenic probe head. All of the experiments were performed at 300 K. Automatic tuning, matching, shimming and adjusting of the 90° pulse length were performed for each sample.
As mouse urine naturally contains urinary proteins, the NMR spectra were acquired using a Carr-Purcell-Meiboom-Gill (CPMG) pulse sequence with water presaturation (Bruker pulse sequence cpmgpr1d) to eliminate the strong protein background. […] For better metabolite identification, a short J-resolved experiment with presaturation (NS = 2, SW = 16 ppm, TD = 8k, number of increments = 40, SW = 78.125 Hz in the indirect dimension, and relaxation delay = 2 s) was executed for all samples. Additional two-dimensional ^1H-^1H correlation spectroscopy (COSY) and ^1H-^13C heteronuclear multiple-quantum correlation (HMQC) experiments (Bruker pulse sequences cosygpprqf and hmqcphpr) were performed for selected samples.
The acquired data were processed using Topspin 3.2 software (Bruker BioSpin, Rheinstetten, Germany). Line broadening of 0.3 Hz was applied on free induction decays (FIDs) prior to Fourier transformation. The spectra were automatically phased, baseline corrected and referenced to the signal of TSP (0.00 ppm).
The assignment of individual metabolites was achieved by comparing the proton spectra with the spectra of pure metabolites using Chenomx NMR Suite 7.6 (Chenomx Inc., Edmonton, AB, Canada), the HMDB database and previously published metabolomic data. The identification of metabolites was supported through J-resolved and COSY experiments and, if possible, confirmed using carbon chemical shifts extracted from the HMQC spectra.
For quantitation of individual metabolites, the CPMG spectra were uniformly binned in the range of 0.10–10.00 ppm to 0.01-ppm intervals using AMIX software (Bruker BioSpin, Rheinstetten, Germany). This procedure reduced the dimensionality of the data, eliminated chemical shift variations and thus simplified the reproducible automatic quantification. Regions corresponding to water (4.60–4.90 ppm) and urea (5.60–6.00 ppm) were removed prior to analysis. As the dilutions of the original urine samples differed (due to the differences in water intake during urine collection), all of the spectra were normalized to the total spectral area (TSA). For each identified metabolite, one representative signal was chosen and then quantified as the sum of appropriate adjacent 0.01-ppm bins to cover the whole signal width. The metabolite concentration was expressed as the TSA-normalized intensity of the respective signal. For selection of an appropriate statistical method (parametric or non-parametric) the Lilliefors test of normality was performed. […] Metabolite alterations with a P < 0.05 were considered statistically significant. Statistical analysis was performed using Matlab software (“MATLAB version 8.6 (R2015b). Natick, Massachusetts: The MathWorks Inc., 2015.,” n.d.). […]

[1] = difference of analog mean vs saline mean

SMILES: CCCCCCCCCCCCCCCC(=O)NCCCOCCOCCOCCCNC(=O)CCC(=O)NCCCC[C@H](NC(=O)[C@@H](NC(=O)[C@H](CCC(=O)O)NC(=O)[C@H](CCSC)NC(=O)[C@H](CO)NC(=O)[C@H](Cc1c[nH]cn1)NC(=O)[C@H](CCCNC(=N)N)NC(=O)[C@H](Cc1c[nH]cn1)NC(=O)[C@@H](NC(=O)[C@H](CCCNC(=N)N)NC(=O)[C@@H](N)CO)[C@@H](C)O)[C@@H](C)CC)C(=O)N[C@H](C(=O)N1CCC[C@H]1C(=O)N[C@@H](CC(=O)O)C(=O)N[C@H](C(=O)N[C@@H](CC(N)=O)C(=O)N1CCC[C@H]1C(=O)N[C@@H](C)C(=O)N[C@@H](Cc1c[nH]c2ccccc12)C(=O)N[C@@H](Cc1ccc(O)cc1)C(=O)N[C@@H](C)C(=O)N[C@@H](CO)C(=O)N[C@@H](CCCNC(=N)N)C(=O)NCC(=O)N[C@H](C(=O)N[C@@H](CCCNC(=N)N)C(=O)N1CCC[C@H]1C(=O)N[C@H](C(=O)NCC(=O)N[C@@H](CCCNC(=N)N)C(=O)N[C@@H](Cc1ccccc1)C(N)=O)C(C)C)[C@@H](C)CC)[C@@H](C)CC)[C@@H](C)O [analog 2] (H-SRTHRHSMEIK([Suc-TTDA(Palmitoyl)])TPDINPAWYASRGIRPVGRF-NH2; N-terminus assumed)
- creatine, Saline/analog % [1]: -0.033%
- creatinine, Saline/analog % [1]: 0.035%
- ethanolamine, Saline/analog % [1]: -0.025%
- formate, Saline/analog % [1]: 0.032%
- fumarate, Saline/analog % [1]: -0.055%
- galactose, Saline/analog % [1]: 0.041%
- glucose, Saline/analog % [1]: -0.039%
- glycine, Saline/analog % [1]: 0.016%
- hexanoylglycine + acids (0.88 ppm), Saline/analog % [1]: 0.157%
- hippurate (7.55 ppm), Saline/analog % [1]: 0.047%
- hippurate (7.64 ppm), Saline/analog % [1]: 0.039%
- hippurate (7.84 ppm), Saline/analog % [1]: 0.035%
- lactate, Saline/analog % [1]: 0.156%
- multiplet acids (1.6 ppm), Saline/analog % [1]: 0.157%
- putrescin, Saline/analog % [1]: -0.042%
- succinate, Saline/analog % [1]: 0.163%
- taurine (3.27 ppm), Saline/analog % [1]: -0.196%
- taurine (3.43 ppm), Saline/analog % [1]: -0.239%
- trigonelline (8.84 ppm), Saline/analog % [1]: -0.008%
- trigonelline (9.13 ppm), Saline/analog % [1]: -0.024%
- vinylacetylglycine, Saline/analog % [1]: 0.163%
- 2-OG (2.45 ppm), Mean (group mean): 11.956
- 2-OG (3.01 ppm), Mean (group mean): 10.103
- 2-PY (8.33 ppm), Mean (group mean): 0.992
- 3-indoxylsulfate (7.51 ppm), Mean (group mean): 1.459
- 3-indoxylsulfate (7.71 ppm), Mean (group mean): 0.842
- 4-PY (7.97 ppm), Mean (group mean): 1.710
- 4-PY (8.55 ppm), Mean (group mean): 0.484
- DMA, Mean (group mean): 5.145
- DMG, Mean (group mean): 1.928
- MA, Mean (group mean): 2.920
- MNA (8.90 ppm), Mean (group mean): 0.407
- MNA (8.97 ppm), Mean (group mean): 0.391
- MNA (9.265 ppm), Mean (group mean): 0.413
- MNA-Nox (7.75 ppm), Mean (group mean): 0.969
- MNA-Nox (8.13 ppm), Mean (group mean): 0.725
- MNA-Nox (8.49 ppm), Mean (group mean): 0.458
- MNA-Nox (8.75 ppm), Mean (group mean): 0.434
- N-carbamoylalanine (2.38 ppm), Mean (group mean): 10.919
- N-carbamoylalanine (3.31 ppm), Mean (group mean): 9.060
- N-isovalerylglycine + oxovalerate (0.92 ppm), Mean (group mean): 15.384
- TMA, Mean (group mean): 10.220
- acetate, Mean (group mean): 4.384
- allantoin, Mean (group mean): 21.272
- carnitine, Mean (group mean): 6.113
- choline, Mean (group mean): 2.053
- cis-aconitate, Mean (group mean): 9.014
- citrate (2.55 ppm), Mean (group mean): 31.737
- citrate (2.69 ppm), Mean (group mean): 28.801
- creatine+creatinine, Mean (group mean): 23.782
- creatine, Mean (group mean): 6.742
- creatinine, Mean (group mean): 11.494
- ethanolamine, Mean (group mean): 7.749
- formate, Mean (group mean): 0.205
- fumarate, Mean (group mean): 0.167
- galactose, Mean (group mean): 0.806
- glucose, Mean (group mean): 3.486
- glycine, Mean (group mean): 6.185
- hexanoylglycine + acids (0.88 ppm), Mean (group mean): 15.251
- hippurate (7.55 ppm), Mean (group mean): 4.857
- hippurate (7.64 ppm), Mean (group mean): 2.465
- hippurate (7.84 ppm), Mean (group mean): 5.092
- lactate, Mean (group mean): 7.122
- multiplet acids (1.6 ppm), Mean (group mean): 12.357
- putrescin, Mean (group mean): 8.544
- succinate, Mean (group mean): 12.532
- taurine (3.27 ppm), Mean (group mean): 20.714
- taurine (3.43 ppm), Mean (group mean): 17.197
- trigonelline (8.84 ppm), Mean (group mean): 0.310
- trigonelline (9.13 ppm), Mean (group mean): 0.125
- vinylacetylglycine, Mean (group mean): 3.494

From article PMC5562305, “Impact of novel palmitoylated prolactin-releasing peptide analogs on metabolic changes in mice with diet-induced obesity” (PLoS ONE, 2017)
